# According to patent publication US20190151351A1, “REGULATORS OF ANAPLASTIC LYMPHOMA KINASE AND USES THEREOF” (Celldex Therapeutics, Inc., priority 2014, published 2019):
# B1: MK: secreted protein Midkine, proposed as physiological ALK ligand (protein)
# chain: VAKKKDKVKKGGPGSECAEWAWGPCTPSSKDCGVGFREGTCGAQTQRIRCRVPCNWKKEFGADCKYKFENWGACDGGTGTKVRQGTLKKARYNAQCQETIRVTKPCTPKTKAKAKAKKGKGKD
# B2: PTN: secreted protein Pleiotrophin, proposed as physiological ALK ligand (protein)
# chain: GKKEKPEKKVKKSDCGEWQWSVCVPTSGDCGLGTREGTRTGAECKQTMKTQRCKIPCNWKKQFGAECKYQFQAWGECDLNTALKTRTGSLKRALHNAECQKTVTISKPCGKLTKPKPQAESKKKKKEGKKQEKMLD
# Assays:
# [1] = biological target: FL-ECD binding to heparin; experiment: SPR competition: inhibition of FL-ECD binding to heparin surface
# Protocol: FIG. 8: Sucrose octasulfate (SOS) inhibits ALK binding to heparin in a dose-dependent manner, as measured by SPR. A titration of SOS was pre-incubated with 350 nM of FL-ECD. These complexes were then injected over the heparin surface.
# These complexes were then injected over the heparin surface. […] In addition, the IC50 and inhibition constant values indicate a high degree of specificity for the interaction between heparin and ALK.
# A BIACORE™ T100 instrument was used at 25° C. using 25 mM Hepes, 300 mM NaCl, 10% Glycerol, pH 7.4. All reagents were dialyzed with this buffer prior to use. Heparin-biotin (Sigma) sold as ≥97% pure was further purified using PD-10 pre-packed columns (GE-Healthcare) to remove free biotin in solution. Heparin-biotin was then immobilized on an assembled NeutrAvidin surface (amine coupled on a CM4 Series-S Biacore chip): three surfaces were produced with different concentrations of immobilized heparin by varying contact time from 48 to 240 s, and excess ligand was removed. Due to the heterogeneous nature of heparins, the surface was a combination of many chain lengths of heparin. Three-fold dilutions of FL-ECD and ΔN-ECD were injected sequentially over a reference surface without heparin and three heparin surfaces. The surface was regenerated between cycles with 2.5 M NaCl, 5 mM Acetic Acid, pH 4.5. For the SOS competition assay, serial dilutions of SOS were pre-incubated with 0.350 μM FL-ECD and then injected over the chip. Data were analyzed using the BiaCore T100 software.
# [2] = test system: ALK; experiment: SOS inhibition of heparin-induced phosphorylation in NB1 neuroblastoma cells; format: cell-based; settings: SOS 0-10 mg/mL along with 10 μg/mL heparin
# Protocol: FIG. 4: Heparin induced activation of ALK is inhibited by sucrose-octasulfate (SOS).
# NB1 neuroblastoma cells were treated with increasing doses of SOS (0, 0.001, 0.01, 0.1, 1, and 10 mg/mL) along with 10 μg/mL of heparin.
# [3] = test system: ALK; experiment: Western blot of ALK and AKT phosphorylation in NB1 neuroblastoma cells (heparin dose response, other glycosaminoglycans); format: cell-based; settings: heparin 0-100 μg/mL, other glycosaminoglycans at 10 μg/mL
# Protocol: NB1 neuroblastoma cells were treated with increasing doses of heparin (0, 0.001, 0.01, 0.1, 1, 10, 100 μg/mL heparin), and phosphorylation of ALK and AKT was monitored by Western blot analysis. Various glycosaminoglycans at 10 μg/mL were also assessed for their ability to activate ALK. An ALK-agonistic mAb was used as a positive control for pALK and pAKT.
# [4] = test system: ALK; experiment: Western blot of ALK and MAPK phosphorylation in NB1 neuroblastoma cells; format: cell-based; settings: heparin 10 μg/mL
# Protocol: FIG. 2: Heparin, but neither PTN or MK, induces ALK tyrosine phosphorylation. […] An agonistic anti-ALK monoclonal antibody was used as a positive control for activation of ALK and MAPK.
# NB1 neuroblastoma cells were treated with heparin (Hep), pleiotrophin (PTN), and midkine (MK) to determine the influence of each on ALK phosphorylation. […] An agonistic anti-ALK monoclonal antibody was used as a positive control for activation of ALK and MAPK.
# Target sequence in this assay (Q9UM73 19-222 limits assumed): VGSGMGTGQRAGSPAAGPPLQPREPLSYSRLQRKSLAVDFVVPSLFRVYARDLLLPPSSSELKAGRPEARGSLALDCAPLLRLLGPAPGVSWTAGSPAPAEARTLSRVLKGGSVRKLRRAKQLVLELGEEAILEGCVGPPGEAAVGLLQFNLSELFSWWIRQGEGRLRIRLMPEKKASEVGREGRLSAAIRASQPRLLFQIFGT
molecule,measurement,setting,value
"O=S(=O)(O)OC[C@H]1O[C@@](COS(=O)(=O)O)(O[C@H]2O[C@H](COS(=O)(=O)O)[C@@H](OS(=O)(=O)O)[C@H](OS(=O)(=O)O)[C@H]2OS(=O)(=O)O)[C@@H](OS(=O)(=O)O)[C@@H]1OS(=O)(=O)O [SOS, Sucrose-octasulfate]",Ki,"[1]; SPR SOS competition with 350 nM FL-ECD, read-out: inhibition constant (Ki)",2250 nM
same,IC50,"[1]; SPR, SOS pre-incubated with 350 nM FL-ECD, Rmax values",6500 nM
same,Kd,"[1]; calculated using the Cheng-Prusoff equation, read-out: KD for SOS/FL-ECD binding",2250 nM
same,"inhibition of heparin-induced phosphorylation of ALK, AKT and MAPK",[2],"capable of inhibiting heparin-induced phosphorylation of ALK, AKT, and MAPK in a dose dependent manner"
Dextran sulfate,phosphorylation of ALK and AKT,[3],induce phosphorylation of ALK and AKT
B1,ALK (tyrosine) phosphorylation,[4],neither PTN nor MK influence ALK phosphorylation
B2,ALK (tyrosine) phosphorylation,[4],neither PTN nor MK influence ALK phosphorylation
